Test results taken from the supplement of paper PMC13380429.

Experiments:
Settings in all cases: 72 h
[1] = tested on: Calu-3; assay: relative viability EC50 (midpoint between 100% and the lowest measured viability); higher = less toxic
[2] = tested on: U2OS; assay: cell viability relative to DMSO; higher = less toxic
[3] = tested on: Calu-3; assay: as above
[4] = tested on: Vero E6; assay: as above
[5] = tested on: Caco-2; assay: as above
[6] = tested on: HepG2; assay: as above
[7] = tested on: U2OS; assay: drug sensitivity score (DSS) for viability; higher = more toxic; extreme values may be limits of the assay
[8] = tested on: Calu-3; assay: as above
[9] = tested on: Vero E6; assay: as above
[10] = tested on: Caco-2; assay: as above
[11] = tested on: HepG2; assay: as above
[12] = tested on: U2OS; assay: relative viability EC50 (midpoint between 100% and the lowest measured viability); higher = less toxic
[13] = tested on: Vero E6; assay: as above
[14] = tested on: Caco-2; assay: as above

SMILES	relative viability EC50 [1]	cell viability ([2]; 1 nM)	cell viability ([2]; 10 nM)	cell viability ([2]; 100 nM)	cell viability ([2]; 1000 nM)	cell viability ([2]; 10000 nM)	cell viability ([3]; 1 nM)	cell viability ([3]; 10 nM)	cell viability ([3]; 100 nM)	cell viability ([3]; 1000 nM)	cell viability ([3]; 10000 nM)	cell viability ([4]; 1 nM)	cell viability ([4]; 10 nM)	cell viability ([4]; 100 nM)	cell viability ([4]; 1000 nM)	cell viability ([4]; 10000 nM)	cell viability ([5]; 1 nM)	cell viability ([5]; 10 nM)	cell viability ([5]; 100 nM)	cell viability ([5]; 1000 nM)	cell viability ([5]; 10000 nM)	cell viability ([6]; 1 nM)	cell viability ([6]; 10 nM)	cell viability ([6]; 100 nM)	cell viability ([6]; 1000 nM)	cell viability ([6]; 10000 nM)	drug sensitivity score [7]	drug sensitivity score [8]	drug sensitivity score [9]	drug sensitivity score [10]	drug sensitivity score [11]	relative viability EC50 [12]	relative viability EC50 [13]	relative viability EC50 [14]
CN(C[C@@H]1COCCO1)S(=O)(=O)Nc1ccc2ccc3ncc(-c4cnn(C)c4)cc3c(=O)c2c1 [MK-2461]	> 10 µM	89.1%	98.8%	99.2%	96.9%	64.1%	81.9%	89%	84%	90.7%	93.9%	103%	97.7%	97.3%	93.2%	59.7%	103%	97.9%	94.5%	99.7%	64.5%	96.6%	96.6%	96.5%	91.4%	58.6%	2.2	0	3.1	1.7	3.5			
Cc1ccccc1NC(=O)Nc1ccc(CC(=O)N(C)[C@@H](CC(C)C)C(=O)NCC[C@H](NC(=O)[C@@H]2CCCN2S(=O)(=O)c2cc(Cl)cc(Cl)c2)C(=O)O)cc1 [BIO-5192]	> 10 µM	102%	96.2%	95.1%	105%	97.6%	104%	102%	96.5%	108%	104%	98.3%	93.9%	93.1%	96.7%	109%	98%	97.3%	90.5%	99.5%	96.8%						0	0	0	0		> 10 µM	> 10 µM	> 10 µM
CCc1cccc(CC)c1NC1=NCCN1 [ST-91]	> 10 µM	103%	98.7%	104%	94.8%	99%	104%	90.2%	96.6%	89.6%	115%	98.9%	97.1%	102%	98.3%	93.5%	102%	101%	96.2%	93.4%	100%						0	0	0	0		> 10 µM	> 10 µM	> 10 µM
COCc1nnc(N2CC(Oc3ccc(F)cc3Cl)C2)n1-c1ccc(OC)nc1	> 10 µM	93.3%	93.6%	95.6%	103%	97.4%	92.8%	103%	101%	104%	113%	97.8%	93.1%	101%	90.9%	106%	88.5%	105%	102%	105%	97.5%						0	0	0	0		> 10 µM	> 10 µM	> 10 µM
Nc1ccc(S(=O)(=O)Nc2ccccn2)cc1 [sulfapyridine]																											0	0	0		0			
C1=C2CCCN[C@H]2[C@@H]2C[C@H]1[C@H]1CCCCN1C2 [aloperine]	> 10 µM	96.8%	102%	92.8%	100%	94.1%	91.1%	99.2%	90.7%	85%	83.1%	102%	100%	104%	99.4%	98.1%	96.4%	108%	104%	106%	94.4%						0	1.4	0	0		> 10 µM	> 10 µM	> 10 µM
Cn1c(=O)c2c(ncn2CCOC(=O)C(C)(C)Oc2ccc(Cl)cc2)n(C)c1=O [etofylline-clofibrate]	> 10 µM	98%	91.9%	101%	95.9%	97.3%	96.1%	98.9%	93.2%	94.3%	89.5%	92.8%	109%	91.6%	96.1%	104%	98%	100%	89.4%	91.4%	93.9%						0	0	0	0.3		> 10 µM	> 10 µM	> 10 µM
Cc1cc(C)nc(SCC(=O)Nc2ncc(Cc3cccc4ccccc34)s2)n1 [SirReal-2]	> 10 µM	94.7%	103%	96.6%	101%	92.8%	97%	95.7%	95.1%	91%	102%						104%	101%	93.4%	99.6%	96.6%						0	0		0		> 10 µM		> 10 µM
C[C@]12C=CC(=O)N[C@@H]1CC[C@@H]1[C@@H]2CC[C@]2(C)[C@@H](C(=O)Nc3cc(C(F)(F)F)ccc3C(F)(F)F)CC[C@@H]12 [dutasteride]	> 10 µM						111%	99%	98.2%	105%	106%						111%	93%	105%	97.4%	104%							0		0				> 10 µM
CNC(=O)COC(=O)NCCC1CCN(c2cccc(C)n2)CC1 [SA-47]	> 10 µM	92.8%	101%	103%	97.7%	99.2%	98.4%	101%	105%	103%	105%	85.7%	97.6%	90.7%	92.7%	110%	90.7%	101%	97.7%	99.3%	94%						0	0	0	0		> 10 µM	> 10 µM	> 10 µM
CO[C@@H]1[C@@H](OC(N)=O)[C@@H](O)[C@H](Oc2ccc3c(O)c(NC(=O)c4ccc(O)c(CC=C(C)C)c4)c(=O)oc3c2C)OC1(C)C [novobiocin]	> 10 µM						98.1%	101%	98.8%	93.6%	81.2%						124%	92.9%	109%	108%	112%							1.1		0				> 10 µM
NCC(=O)Nc1ccc(-n2nc(C(F)(F)F)cc2-c2ccc3c(ccc4ccccc43)c2)cc1 [AR-12]	3.39 µM	89.7%	98.9%	95%	100%	89%	103%	98.2%	98.9%	102%	45.4%	97.4%	94.3%	95.7%	80.4%	68.2%	96.8%	91%	87.9%	96.8%	92.1%	110%	96.1%	103%	105%	71.5%	0	2.7	3.5	0	0.9	> 10 µM		> 10 µM
O=C1OC2(c3ccccc31)c1cc(I)c(O)c(I)c1Oc1c2cc(I)c(O)c1I [erythrosine]		94.6%	91.7%	97%	88.7%	57.3%	102%	104%	113%	86.6%	53.6%	87.3%	96.4%	98.7%	81.6%	64.5%	99.2%	98.7%	102%	93.8%	51.9%	104%	109%	97.6%	103%	53.4%	3.9	4.4	3.7	3.6	2.2			
CC/C(=C(\c1ccccc1)c1ccc(OCCN(C)C)cc1)c1ccccc1 [tamoxifen]		94.6%	102%	93%	97.2%	87.6%	103%	95.5%	94.7%	86%	52.7%	98.9%	90%	93.3%	86.9%	58.9%						105%	106%	105%	102%	73.3%	0	4.2	3.4		0.9	> 10 µM		
